Data: patent US20070191396A1, “Fungicidal mixtures” (BASF Aktiengesellschaft, priority 2004, published 2007)

Test system: Pyrenophora teres
Assay: Activity against net blotch of barley caused by Pyrenophora teres, 1 day protective application
Type: in vivo
Conditions: individual active compound, barley seedlings "Hanna", assessed after 6 days
Protocol: The active compounds, separately, were prepared as a stock solution comprising 25 mg of active compound which was made up to 10 ml using a mixture of acetone and/or DMSO and the emulsifier Uniperol® EL (wetting agent having an emulsifying and dispersing action based on ethoxylated alkylphenols) in a ratio by volume of solvent/emulsifier of 99:1. The mixture was then made up to 100 ml with water. The active compounds or mixtures were diluted or mixed with water to the stated concentration.
Activity against net blotch of barley caused by Pyrenophora teres, 1 day protective application
Leaves of potted barley seedlings of the “Hanna” cultivar were sprayed to runoff point with an aqueous suspension having the concentration of active compound stated below. 24 hours after the spray coating had dried on, the test plants were inoculated with an aqueous spore suspension of Pyrenophora [syn. Drechslera] teres, the net blotch pathogen. […] After 6 days, the extent of the development of the disease was determined visually in % infection of the total leaf area.
The visually determined percentages of infected leaf areas were converted into efficacies in % of the untreated control:
The efficacy (E) is calculated as follows using Abbot's formula: E=(1−[…] )·100 α corresponds to the fungal infection of the treated plants in % and β corresponds to the fungal infection of the untreated (control) plants in % […]

CC1CCN(c2c(-c3c(F)cc(F)cc3F)c(Cl)nc3ncnn23)CC1 [I, 5-chloro-7-(4-methylpiperidin-1-yl)-6-(2,4,6-trifluorophenyl)[1,2,4]triazolo[1,5-a]pyrimidine]
Efficacy in % of the untreated control (1.25 ppm in the spray liquor): 55 % of the untreated control
Efficacy in % of the untreated control (5 ppm in the spray liquor): 78 % of the untreated control
